This note sets out measurements from patent publication US20170311606A1, “SYNERGISTIC BACILLUS THURINGIENSIS SUBSP. KURSTAKI AND FLUBENDIAMIDE MIXTURES FOR BEET ARMYWORM, SOYBEAN LOOPER, CORN EARWORM, AND CABBAGE LOOPER CONTROL” (priority 2016, published 2017).

In one experiment the test system is sugarcane borer larvae. The experiment in a line: Leaf dip bioassay, sugarcane borer larvae. The format is in vivo. The following applies: foliar, Btk 0.54 ppm, flubendiamide 2.15 ppm, alone or mixed, read-out: % Efficacy. Here is the method: (§1) The present invention is not limited to the products or formulation types used herein. In each example below, the studies were conducted as follows.
(§2) For these tests, standardized laboratory leaf dip methods were used to inoculate plant material with treatment(s). Dry, treated leaves were placed into Petri dishes (100×25 mm) containing filter paper wetted with 500 μl of distilled H2O (“dH2O”). Each dish was then infested with between 5 and 10 larvae, dependent on species. Efficacy ratings were taken at specified intervals. Synergy ratings were calculated for each test.
(§3) % Cexp=A+B−(AB/100), where % Cexp is the expected efficacy and “in which A and B are the control levels given by the single [insecticides]. […] Adopting a conservative approach, Applicant determined synergy to be present at ratios of >1.15.

For another experiment, the system named is corn earworm larvae. Put plainly: Leaf dip bioassay, corn earworm larvae. The format is in vivo. The following applies: Helicoverpa zea, foliar, Btk 0.54 ppm, flubendiamide 0.975 ppm, alone or mixed, read-out: % Efficacy. As to the method:
as §1, §2, §3

The subject of a further experiment is cabbage looper larvae. Put plainly: Leaf dip bioassay, cabbage looper larvae. The format is in vivo. The following applies: Trichoplusia ni, foliar, Btk 0.54 ppm, flubendiamide 0.49 ppm, alone or mixed, read-out: % Efficacy. Here is the method:
as §1, §2, §3

A further experiment concerns diamondback moth larvae. Put plainly: Leaf dip bioassay, diamondback moth larvae. The class given is in vivo. The following applies: Plutella xylostella, foliar, Btk 0.54 ppm, flubendiamide 0.215 ppm, alone or mixed, read-out: % Efficacy.
Experiment [1] relates to southwestern corn borer larvae. Put plainly: Leaf dip bioassay, southwestern corn borer larvae. The format is in vivo. The settings on record: foliar, Btk 0.54 ppm, flubendiamide 0.215 ppm, alone or mixed, read-out: % Efficacy. Here is the method: as §1, §2, §3
A further experiment deals with beet armyworm larvae. The experiment in a line: Leaf dip bioassay, beet armyworm larvae. The class given is in vivo. The following applies: Spodoptera exigua, foliar, alone or mixed, read-out: % Efficacy. Here is the method: as §1, §2, §3
The next experiment has as its system soybean looper larvae. Put plainly: Leaf dip bioassay, soybean looper larvae. The class given is in vivo, Chrysodeixis includens. The settings on record: foliar, Btk 0.54 ppm, flubendiamide 3.9 ppm, alone or mixed, read-out: % Efficacy. Here is the method:
as §1, §2, §3

SMILES strings stand for the structures. Where two headings read alike, the source gives them in different places.

Turning to `Cc1cc(C(F)(C(F)(F)F)C(F)(F)F)ccc1NC(=O)c1cccc(I)c1C(=O)NC(C)(C)CS(C)(=O)=O` [Flubendiamide, 3-iodo-N′-(2-mesyl-1,1-dimethylethyl)-N-{4-[1,2,2,2-tetrafluoro-1-(trifluoromethyl)ethyl]-o-tolyl}phthalamide], the Emax at 2.15 ppm with sugarcane borer larvae (24 h after treatment) is 28%; in the experiment on sugarcane borer larvae (48 h after treatment), 40%. In addition, the Emax at 0.975 ppm in the experiment with corn earworm larvae (24 h after treatment) worked out at 14%; with corn earworm larvae (48 h after treatment), 24%. For the same compound, the Emax at 0.49 ppm in the experiment on cabbage looper larvae (24 h after treatment) came to 7%; with cabbage looper larvae (48 h after treatment) it was 19%; in the experiment on beet armyworm larvae (24 h after treatment), 6%; with beet armyworm larvae (48 h after treatment), 14%. Moreover, the Emax at 0.215 ppm in the experiment with diamondback moth larvae (24 h after treatment) amounted to 7%; with diamondback moth larvae (48 h after treatment) it was 19%; in experiment [1] (24 h after treatment), 40%; in experiment [1] (48 h after treatment), 48%. In addition, the values for the Emax at 3.9 ppm in the experiment on soybean looper larvae (24 h after treatment) and in the experiment with soybean looper larvae (48 h after treatment) were 4% and 16%, respectively.
